For one series, the system named is P. aeruginosa. The experiment in a line: Live confocal imaging of bacteria, signal to noise of FAM vs NBD label. The format is cell-based. To be noted: confocal microscopy, 10 μM. The source says: UBI29–41 was firstly conjugated to carboxyfluorescein (UBI-1) and used to image bacteria with analysis via confocal microscopy. This yielded insufficient signal to noise to distinguish bacteria from background fluorescence (Fig. 1). We therefore took advantage of the environmental reporting properties of the fluorophore 7-nitrobenz-2-oxa-1,3-diazole (NBD)[12] and hypothesized there would be fluorescence amplification of NBD in the apolar hydrophobic bacterial membrane.
Fig. 1 NBD–UBI enables live confocal imaging of bacteria. […]
(§1) Confocal Analysis and Fluorescence Quantification: 8-Well Lab-Tek II Confocal Chambers (VWR, PA, USA) were coated in fibronectin (for neutrophil experiments) or poly-d-lysine (for bacteria) at 37 °C for 20 minutes, then washed in PBS prior to bacterial innoculation. […] Exposure to 488 nm light was limited to 5% of the maximum laser power in order to minimize toxicity. ‘Green’ fluorescence (for FAM and NBD) was excited with a dedicated 488 nm line and emitted light detected with meta detector (500-530 nM).
(§2) Syto nuclear and dyes were excited with a dedicated 543 nm line, and emitted light detected with meta detector (570-610 nM). Fields of view were chosen based on the counterstain and at least three fields of view were recorded for each condition. […]
mean fluorescence intensity on the probe channel within this ROI was quantified. […]

Series [1] relates to methicillin-sensitive Staphylococcus aureus (MSSA), Pseudomonas aeruginosa and Klebsiella pneumoniae. The series can be described thus: Confocal bacterial labelling, UBI-2 vs UBI-3 on a panel of bacteria. To be noted: fluorescence normalised to UBI-2, mean ± SEM, n ≥ 3. In kind it is cell-based. The procedure: Fig. 3 UBI-3 retains specificity and sensitivity for bacterial labelling. […] Panels show bacteria labelled with either UBI-2 or UBI-3 with quantification of fluorescence (values normalised to UBI-2) (Bars represent mean, error bars represent standard error of mean, n ≥ 3, ns = not significant, scale bar = 10 μm). (B) Quantification from confocal images of UBI-3 (10 μM) imaging a panel of bacteria (statistical analyses shown compared to unlabelled bacteria, n ≥ 3 for each bacteria, *** = p < 0.001). […] [MRSA: methicillin-resistant Staphylococcus aureus, MSSA: methicillin-sensitive Staphylococcus aureus]. […]
as §1, §2

The nature of series [2]: Chemical stability on storage in phosphate buffered saline at 37 °C (HPLC). The format is physicochemical. To be noted: 1 mg mL–1 in PBS, day 0 vs day 3, HPLC, detection at 380 nm. The procedure:
This modification is particularly of relevance due to the expected in vivo inflammatory oxidative environment within an infected pneumonic lung due to infiltrating host inflammatory cells such as neutrophils,[13] and therefore all subsequent modifications incorporated Nle in place of Met.
HPLC chromatograms (gradient acetonitrile + 0.1% formic acid/water + 0.1% formic acid from 5/95 to 95/5 over 10 min, then isocratic for 4 min; detection at 380 nm). UBI-2 (1 mg mL^–1 in PBS, upper panels) and UBI-3 (1 mg mL^–1 in PBS, lower panels) at (A) day 0 and (B) day 3 after incubation at 37 °C.

Series [3] relates to methicillin-sensitive Staphylococcus aureus. The experiment in a line: Confocal labelling of MSSA with quantified fluorescence. The format is cell-based. Particulars: for concentration dependence of bacterial labelling: 0.5 μM to 50 μM, methicillin sensitive S. aureus; for bacterial labelling (fluorescence compared with UBI-3): MSSA, 10 μM, fluorescence normalized to UBI-3, mean ± SEM, n ≥ 3. The procedure:
Fig. 6 Confocal Images of compounds UBI-3 to 9 with quantified fluorescence. Panels show methicillin-sensitive Staphylococcus aureus incubated with UBI-3 to 9 (all 10 μM) with quantification of bacterial fluorescence normalized to UBI-3 (bars represent mean (±SEM), n ≥ 3, ns = not significant, *** = p < 0.001, * = p < 0.05, scale bar = 10 μm).
Fig. 8 Confocal images and quantification of cyclic variants when compared to UBI-3. Panels show methicillin-sensitive Staphylococcus aureus incubated with cyclic UBI compounds (all 10 μM) with quantification of bacterial fluorescence normalized to UBI-3 (bars represent mean (±SEM), n ≥ 3, ns = not significant, ** = p < 0.01, scale bar = 10 μm).
Bacterial Culture and Labelling: Bacteria used were K. pneumoniae (ATCC BAA1706) ATCC, E. coli (ATCC 25922) ATCC, A. baumannii (J3433) Clinical Isolate, P. aeruginosa (J3284) Clinical Isolate, Methicillin Resistant S. aureus (MRSA) (ATCC25923) ATCC and Methicillin Sensitive S. aureus (MSSA) (ATCC 252) ATCC. All bacteria were grown on Lysogeny broth (LB) agar and from a single bacterial colony placed into 10ml of LB and incubated at 37°C for 16 hours in an orbital shaker.
Cultures were centrifuged at 4000rpm for 5 minutes and the pellet resuspended in 1ml phosphate buffered saline (PBS, Life Technologies). Following three further washes in PBS the cultures were reconstituted to 1 OD595 nm. Bacteria were counterstained with 5µM Syto 82 orange fluorescent nucleic acid stain (Invitrogen, CA, USA) in a shaking heat block at 37 °C for 20 minutes. For FCFM bacteria were stained with 1µM Calcein AM (Sigma, MO, USA) for 30 minutes at 37 °C. Counterstained bacteria were washed in PBS to remove excess dye. […]
(§3) Confocal Analysis and Fluorescence Quantification: 8-Well Lab-Tek II Confocal Chambers (VWR, PA, USA) were coated in fibronectin (for neutrophil experiments) or poly-d-lysine (for bacteria) at 37 °C for 20 minutes, then washed in PBS prior to bacterial innoculation. For co-culture assays, neutrophils were seeded on fibronectin coated wells at 1 x 10^5 neutrophils per well for 20 minutes and non-adherent neutrophils aspirated. Bacteria were added to each chamber to a final concentration of 0.5 OD595 nm with the desired final concentration of Smartprobe. A laser-scanning confocal imaging system (LSM510; Carl Zeiss, Jena, Germany), incorporating an upright Axioskop FS2 microscope (63× objective) was used for image acquisition and processing. Exposure to 488 nm light was limited to 5% of the maximum laser power in order to minimize toxicity. ‘Green’ fluorescence (for FAM and NBD) was excited with a dedicated 488 nm line and emitted light detected with meta detector (500-530 nM).
(§4) Syto nuclear and dyes were excited with a dedicated 543 nm line, and emitted light detected with meta detector (570-610 nM). Fields of view were chosen based on the counterstain and at least three fields of view were recorded for each condition. For affinity assays, following initial imaging, the fluid was aspirated and two gentle washes with PBS were performed. The chamber was re-imaged on confocal.
(§5) Analysis was with ImageJ (version 1.46r, National Institutes of Health, USA); the Syto channel was automatically thresholded (MaxEntropy, with a set threshold 0-47) and an ROI generated from this. The […]
(§6) mean fluorescence intensity on the probe channel within this ROI was quantified. Data presented represents the mean of three experiments, from each of which three separate fields of view were assessed. All experiments were performed at least three times unless otherwise stated and results expressed as mean ± SEM. Data was analysed by unpaired t-test and significance was determined as p<0.05 (GraphPad Prism version 5.01 for Windows, GraphPad Software, San Diego California USA).
Ex vivo Human Lung and FCFM Procedure: Human lung samples were obtained from patients undergoing surgical resection for lung carcinoma. All images were obtained on sections of normal lung […]

Series [4] deals with Methicillin sensitive S. aureus, K. pneumoniae and P. aeruginosa. The series can be described thus: Bacterial affinity: fluorescence retention following a PBS wash (confocal). In kind it is cell-based. Particulars: for bacterial affinity (Table 1, effect on efficacy): Table 1 summary. The procedure: Three compounds (UBI-3, UBI-5 and UBI-10) were assessed for further evaluation. […] In vitro affinity of bacterial binding was assessed by incorporating a wash step in the live confocal imaging protocol with a panel of bacteria with the ‘wash-off’ representing a surrogate indicator of Smartprobe-bacterial labelling affinity. […] UBI-10, therefore, was assessed further in a clinically relevant biological system.
Figure S4. Quantified fluorescence of confocal microscopy images of the compounds UBI-3, UBI-5 and UBI-10 on three bacteria and fluorescence retention following a PBS wash. Quantification of fluorescence intensity of (A) Methicillin sensitive S. aureus, (B) K. pneumoniae and (C) and P. […]
intensity following a PBS wash. […]
as §3, §4, §5, §6
Ex vivo Human Lung and FCFM Procedure: Human lung samples were obtained from patients undergoing surgical resection for lung carcinoma. All images were obtained on sections of normal lung away from the cancerous growth. Informed consent was obtained and the study was approved by the Regional Ethics Committee. Samples were taken fresh from the operating theatre, dissected into 4mm sections and placed in wells of 96 well plate. Bacteria were pre-labelled with Smartprobe or Calcein AM and co-cultured in the well with a maximum volume of 100µl. […]

Entries after “also recorded” stand apart in the source; their conditions may differ. Residues, ends and D or L forms follow the SMILES beside them. *: point of attachment. NBD = O=[N+]([O-])c1ccc(*)c2nonc12; Ahx = NCCCCCC(=O)O

In the case of `CSCC[C@H](NC(=O)[C@H](CCCNC(=N)N)NC(=O)[C@H](CCCNC(=N)N)NC(=O)[C@H](CCCCN)NC(=O)[C@H](C)NC(=O)[C@H](CCCNC(=N)N)NC(=O)CNC(=O)[C@@H](NC(=O)CCCCCNc1ccc([N+](=O)[O-])c2nonc12)[C@@H](C)O)C(=O)N[C@@H](CCC(N)=O)C(=O)N[C@@H](Cc1ccc(O)cc1)C(=O)N[C@@H](CC(N)=O)C(=O)N[C@@H](CCCNC(=N)N)C(=O)N[C@@H](CCCNC(=N)N)C(N)=O` [UBI-2] ({NBD-Ahx}-TGRAKRRMQYNRR-NH2), the “signal to noise for bacterial labelling” value with P. aeruginosa was “good signal to noise; also recorded: higher signal to noise for bacterial labelling over UBI-1”. For the same compound, the “bacterial labelling, Met vs Nle variant” value in series [1] was “same fluorescence intensity”. Besides, in series [2], the “chemical stability in PBS at 37 °C” value is “underwent chemical degradation; also recorded: Unstable at 37 °C in PBS”.
For the compound “NBD-Ahx-Thr-Gly-Arg-Ala-Lys-Arg-MeArg-Nle-Gln-Tyr-Asn-Arg-Arg-D-Phe-D-Val-NH2 [UBI-5, NBD-UBI with D-amino acids (D-Val and D-Phe) incorporated at the C-terminus]”, in series [3], the “concentration dependence of bacterial labelling” value was “concentration dependent manner” and the “bacterial labelling (fluorescence compared with UBI-3)” value was “same intensity as UBI-3”. Also, the “fluorescence following labelling and a PBS wash” value in series [4] (10 µM, two gentle PBS washes, three bacterial species, n=3) is recorded as “significantly lower fluorescence”. Moreover, the “bacterial affinity (Table 1, effect on efficacy)” value in series [4] was “poor bacterial affinity”.
As for “NBD-Ahx-Thr-Gly-Arg-Ala-Lys-MeArg-MeArg-Nle-Gln-Tyr-Asn-MeArg-MeArg-NH2 [UBI-4, NBD-UBI with N-Methylarginine (MeArg) insertion based on MALDI-TOF analysis of cleavage peptides]”, in series [3], the “concentration dependence of bacterial labelling” value is on record as “concentration dependent increase in bacterial fluorescence” and the “bacterial labelling (fluorescence compared with UBI-3)” value was “same intensity as UBI-3”. Also, in series [4], the “bacterial affinity (Table 1, effect on efficacy)” value was “poor bacterial affinity”.

These data come from paper PMC5947527 (Chemical Science, 2015).
